From patent publication US8193203B2, “Bicyclic compounds having activity at the CXCR4 receptor” (Allergan, Inc., priority 2008, dated 2012)
Values belong to the molecule of their own block, whether it stands above or below them.

Target: T1, human CXCR4 receptor (Homo sapiens, UniProt P61073)
T1 construct: expressed in transfected cells
Experiment: Measurement of intracellular Ca+2 responses (FLIPR), antagonism of the SDF-1α response
Format: cell-based
Conditions: for IC50: HEK-Gqi5 cells stably expressing human CXCR4, Fluo-4 FLIPR, antagonism of SDF-1α 1.9 nM (EC65); for CXCR4 (% Inh): percent antagonism of SDF-1α 1.9 nM (EC65) response, HEK-Gqi5 human CXCR4 cells, value in brackets
Description: Measurement of Intracellular Ca^+2 Responses for CXCR4 Compounds
HEK-Gqi5 cells stably expressing the human CXCR4 receptor were utilized for these studies. The growth media for the CXCR4 receptor expressing cell line was DMEM high glucose medium supplemented with 10% fetal bovine serum (FBS), 1% antibiotic-antimycotic, 50 ug/ml hygromycin B, and 400 μg/ml geneticin. Ten thousand cells per well were plated into 384-well poly-D-lysine coated plates one day prior to use. On the day of the experiment, the cells were washed twice with Hank's Balanced Salt Solution supplemented with 20 mM hepes (HBSS/hepes buffer). The cells were then dye loaded with 2 uM Fluo-4 diluted in the HBSS/Hepes buffer and incubated at 37° C. for 40 minutes. Extracellular dye was removed by washing the cell plates four times prior to placing the plates in the FLIPR (Fluorometric Imaging Plate Reader, Molecular Devices). Ligands were diluted in HBSS/Hepes buffer and prepared in 384-well microplates. The positive control, stromal-cell derived factor-1 (SDF-1α), was diluted in HBSS/Hepes buffer with 4 mg/ml fatty acid free bovine serum albumin. Two drug additions were made by the FLIPR. The first drug addition was the test drug in concentrations ranging from 2.44 nM to 40,000 nM. After this addition, fluorescent measurements were taken. Any calcium release in response to this drug addition represents agonist activity of the compounds. The second drug addition was SDF-1α at a final concentration of 1.9 nM (EC65). Fluorescence measurements were also taken after this second drug addition and were used to determine the ability of the test compounds to antagonize the SDF-1α response. Results were expressed as EC50 and efficacy values, as well as IC50 and percent antagonism values. As controls, SDF-1α (CXCR4 agonist) and AMD3100 (CXCR4 antagonist) dose-response curves were also determined in each study.

T1 sequence (P61073 whole entry): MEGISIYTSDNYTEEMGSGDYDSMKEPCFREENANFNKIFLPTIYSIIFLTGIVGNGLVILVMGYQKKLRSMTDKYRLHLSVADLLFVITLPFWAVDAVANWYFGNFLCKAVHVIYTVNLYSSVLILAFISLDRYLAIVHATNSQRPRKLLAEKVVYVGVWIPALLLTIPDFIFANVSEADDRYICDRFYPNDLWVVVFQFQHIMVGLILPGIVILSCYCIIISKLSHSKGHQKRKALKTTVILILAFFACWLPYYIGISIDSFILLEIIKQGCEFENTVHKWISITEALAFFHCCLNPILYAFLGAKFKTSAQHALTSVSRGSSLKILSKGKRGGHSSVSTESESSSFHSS

Structure (SMILES): COc1cccc(N(C)C)c1CN1CCC(Nc2nc(NCC3CCN(C)C3)nc3ccccc23)CC1 (centres unmarked) [Compound 121, N4-(1-(2-(Dimethylamino)-6-methoxybenzyl)piperidin-4-yl)-N2-((1-methylpyrrolidin-3-yl)methyl)quinazoline-2,4-diamine]
- IC50 (values in nM): 0.38 µM
- CXCR4 (% Inh): 97%

Structure (SMILES): COc1cccc(N(C)C)c1CN1CCC(Nc2nc(NCCN)nc3ccccc23)CC1 [Compound 125, N2-(2-Aminoethyl)-N4-(1-(2-(dimethylamino)-6-methoxybenzyl)piperidin-4-yl)quinazoline-2,4-diamine]
- IC50 (values in nM): 0.268 µM
- CXCR4 (% Inh): 97%

Structure (SMILES): COc1cccc(N(C)C)c1CN1CCC(Nc2nc(NCCCN(C)C)nc3ccc(Br)cc23)CC1 [Compound 146, 6-Bromo-N˜4˜-{1-[2-(dimethylamino)-6-methoxybenzyl]piperidin-4-yl}-N˜2˜-[3-(dimethylamino)propyl]quinazoline-2,4-diamine]
- IC50 (values given in μM): 1.2 µM
- CXCR4 (% Inh): 96%

Structure (SMILES): CCN(CC)CCCNc1nc(NC2CCN(Cc3ccccc3N)CC2)c2ccccc2n1 [Compound 149, N˜4˜-[1-(2-Aminobenzyl)piperidin-4-yl]-N˜2˜-[3-(diethylamino)propyl]quinazoline-2,4-diamine]
- IC50 (values given in μM): > 10 µM
- CXCR4 (% Inh): 68%

Structure (SMILES): CCN(CC)CCCNc1nc(NC2CCN(Cc3cccc(C)c3N(C)C)CC2)c2ccccc2n1 [Compound 152, N˜2˜-[3-(Diethylamino)propyl]-N˜4˜-{1-[2-(dimethylamino)-3-methylbenzyl]piperidin-4-yl}quinazoline-2,4-diamine]
- IC50 (values given in μM): 1.4 µM
- CXCR4 (% Inh): 100%

Structure (SMILES): COc1cccc(N(C)C)c1CN1CCC(Nc2nc(NCCN(C)C)nc3ccccc23)CC1 [Compound 153, N˜2˜-[2-(Dimethylamino)ethyl]-N˜4˜-{1-[2-(dimethylamino)-6-methoxybenzyl]piperidin-4-yl}quinazoline-2,4-diamine]
- IC50 (values in nM): 0.118 µM
- CXCR4 (% Inh): 98%

Structure (SMILES): COc1cccc(N(C)C)c1CN1CCC(Nc2nc(NCCN3CCN(C)CC3)nc3ccccc23)CC1 [Compound 154, N˜4˜-{1-[2-(Dimethylamino)-6-methoxybenzyl]piperidin-4-yl}-N˜2˜-[2-(4-methylpiperazin-1-yl)ethyl]quinazoline-2,4-diamine]
- IC50 (values in nM): 0.56 µM
- CXCR4 (% Inh): 97%

Structure (SMILES): COc1cc2nc(NCCCN(C)C)nc(NC3CCN(Cc4c(OC)cccc4N(C)CCN(C)C)CC3)c2cc1OC [Compound 157, N˜4˜-[1-(2-{[2-(Dimethylamino)ethyl](methyl)amino}-6-methoxybenzyl)piperidin-4-yl]-N˜2˜-[3-(dimethylamino)propyl]-6,7-dimethoxyquinazoline-2,4-diamine]
- IC50 (values in nM): 0.411 µM
- CXCR4 (% Inh): 94%

Structure (SMILES): CCN(CC)CCCNc1nc(NC2CCN(Cc3c(OCCN(C)C)cccc3N(C)C)CC2)c2cc(OC)c(OC)cc2n1 [Compound 166, N˜2˜-[3-(Diethylamino)propyl]-N˜4˜-(1-{2-(dimethylamino)-6-[2-(dimethylamino)ethoxy]benzyl}piperidin-4-yl)-6,7-dimethoxyquinazoline-2,4-diamine]
- IC50 (values in nM): 0.049 µM
- CXCR4 (% Inh): 94%

Structure (SMILES): COc1cc2nc(NCCN)nc(NC3CCN(Cc4c(OCCN(C)C)cccc4N(C)C)CC3)c2cc1OC [Compound 180, N˜2˜-(2-Aminoethyl)-N˜4˜-(1-{2-(dimethylamino)-6-[2-(dimethylamino)ethoxy]benzyl}piperidin-4-yl)-6,7-dimethoxyquinazoline-2,4-diamine]
- IC50 (values in nM): 0.116 µM
- CXCR4 (% Inh): 94%

Structure (SMILES): CCN(CC)CCOc1cccc(N(C)C)c1CN1CCC(Nc2nc(NCCN(C)C)nc3cc(OC)c(OC)cc23)CC1 [Compound 189, N˜4˜-(1-{2-[2-(Diethylamino)ethoxy]-6-(dimethylamino)benzyl}piperidin-4-yl)-N˜2˜-[2-(dimethylamino)ethyl]-6,7-dimethoxyquinazoline-2,4-diamine]
- IC50 (values in nM): 0.045 µM
- CXCR4 (% Inh): 94%

Structure (SMILES): COc1cc2nc(NCCN(C)C)nc(NC3CCN(Cc4c(OCCN5CCCC5)cccc4N(C)C)CC3)c2cc1OC [Compound 193, N˜2˜-[2-(Dimethylamino)ethyl]-N˜4˜-{1-[2-(dimethylamino)-6-(2-pyrrolidin-1-ylethoxy)benzyl]piperidin-4-yl}-6,7-dimethoxyquinazoline-2,4-diamine]
- IC50 (values in nM): 0.065 µM
- CXCR4 (% Inh): 95%

Structure (SMILES): COc1cc2nc(NC[C@H](O)CO)nc(NC3CCN(Cc4c(OCCN(C)C)cccc4N(C)C)CC3)c2cc1OC [Compound 195, 3-({4-[(1-{2-(Dimethylamino)-6-[2-(dimethylamino)ethoxy]benzyl}piperidin-4-yl)amino]-6,7-dimethoxyquinazolin-2-yl}amino)propane-1,2-diol]
- IC50 (values in nM): 0.031 µM
- CXCR4 (% Inh): 98%

The next lines start with the values.

- IC50 (values given in μM): 1.7 µM
- CXCR4 (% Inh): 95%
Structure (SMILES): COc1cccc(N(C)C)c1CN1CCC(Nc2nc(NCCCn3ccnc3)nc3ccccc23)CC1 [Compound 120, N2-(3-(1H-Imidazol-1-yl)propyl)-N4-(1-(2-(dimethylamino)-6-methoxybenzyl)piperidin-4-yl)quinazoline-2,4-diamine]

- IC50 (values in nM): 0.084 µM
- CXCR4 (% Inh): 96%
Structure (SMILES): COc1cc2nc(NC[C@@H]3CCNC3)nc(NC3CCN(Cc4c(OCCN(C)C)cccc4N(C)C)CC3)c2cc1OC [Compound 123, (R)—N-4-(1-(2-(Dimethylamino)-6-(2-(dimethylamino)ethoxy)benzyl)piperidin-4-yl)-6,7-dimethoxy-N2-(pyrrolidin-3-ylmethyl)quinazoline-2,4-diamine]

- IC50 (values given in μM): 2.9 µM
- CXCR4 (% Inh): 96%
Structure (SMILES): COc1cccc(N(C)C)c1CN1CCC(Nc2nc(NCCNC(=O)NC(C)C)nc3ccccc23)CC1 [Compound 126, 1-(2-(4-(1-(2-(Dimethylamino)-6-methoxybenzyl)piperidin-4-ylamino)quinazolin-2-ylamino)ethyl)-3-isopropylurea]

- IC50 (values in nM): 0.978 µM
- CXCR4 (% Inh): 75%
Structure (SMILES): CN(C)CCCNc1nc(NC2CCN(Cc3ccccc3-n3cccc3)CC2)c2ccccc2n1 [Compound 130, N4-(1-(2-(1H-Pyrrol-1-yl)benzyl)piperidin-4-yl)-N2-(3-(dimethylamino)propyl)quinazoline-2,4-diamine]

- IC50 (values given in μM): 6.6 µM
- CXCR4 (% Inh): 74%
Structure (SMILES): CCN(CC)CCCNc1nc(NC2CCN(Cc3ccccc3-n3ccnc3)CC2)c2ccccc2n1 [Compound 131, N4-(1-(2-(1H-Imidazol-1-yl)benzyl)piperidin-4-yl)-N2-(3-(diethylamino)propyl)quinazoline-2,4-diamine]

- IC50 (values given in μM): 1.4 µM
- CXCR4 (% Inh): 84%
Structure (SMILES): CCN(CC)CCCNc1nc(NC2CCN(Cc3ccccc3-n3cccc3)CC2)c2ccccc2n1 [Compound 132, N4-(1-(2-(1H-Pyrrol-1-yl)benzyl)piperidin-4-yl)-N2-(3-(diethylamino)propyl)quinazoline-2,4-diamine]

- IC50 (values given in μM): 2.2 µM
- CXCR4 (% Inh): 63%
Structure (SMILES): CCN(CC)CCCNc1nc(NC2CCN(Cc3cccc4ccn(C)c34)CC2)c2ccccc2n1 [Compound 133, N2-(3-(Diethylamino)propyl)-N4-(1-((1-methyl-1H-indol-7-yl)methyl)piperidin-4-yl)quinazoline-2,4-diamine]

- IC50 (values given in μM): 1.4 µM
- CXCR4 (% Inh): 93%
Structure (SMILES): CCN(CC)CCCNc1nc(NC2CCN(Cc3c(OC(C)C)cccc3N(C)C)CC2)c2cc(OC)c(OC)cc2n1 [Compound 139, N˜2˜-[3-(Diethylamino)propyl]-N˜4˜-{1-[2-(dimethylamino)-6-isopropoxybenzyl]piperidin-4-yl}-6,7-dimethoxyquinazoline-2,4-diamine]

- IC50 (values in nM): 0.77 µM
- CXCR4 (% Inh): 97%
Structure (SMILES): COc1cccc(N(C)C)c1CN1CCCC(Nc2nc(NCCCN(C)C)nc3ccccc23)CC1 (centres unmarked) [Compound 174, N˜4˜-{1-[2-(Dimethylamino)-6-methoxybenzyl]azepan-4-yl}-N˜2˜-[3-(dimethylamino)propyl]quinazoline-2,4-diamine]

- IC50 (values given in μM): > 10 µM
- CXCR4 (% Inh): 49%
Structure (SMILES): COc1cc2nc(NCCCN(C)C)nc(NCCNCc3c(OC)cccc3N(C)C)c2cc1OC [Compound 178, N˜4˜-(2-{[2-(Dimethylamino)-6-methoxybenzyl]amino}ethyl)-N˜2˜-[3-(dimethylamino)propyl]-6,7-dimethoxyquinazoline-2,4-diamine]

- IC50 (values in nM): 0.047 µM
- CXCR4 (% Inh): 94%
Structure (SMILES): COc1cc2nc(NCCCN)nc(NC3CCN(Cc4c(OCCN(C)C)cccc4N(C)C)CC3)c2cc1OC [Compound 182, N˜2˜-(3-Aminopropyl)-N˜4˜-(1-{2-(dimethylamino)-6-[2-(dimethylamino)ethoxy]benzyl}piperidin-4-yl)-6,7-dimethoxyquinazoline-2,4-diamine]

- IC50 (values in nM): 0.074 µM
- CXCR4 (% Inh): 96%
Structure (SMILES): COc1cc2nc(NC[C@@H](O)CO)nc(NC3CCN(Cc4c(OCCN(C)C)cccc4N(C)C)CC3)c2cc1OC [Compound 194, 3-({4-[(1-{2-(Dimethylamino)-6-[2-(dimethylamino)ethoxy]benzyl}piperidin-4-yl)amino]-6,7-dimethoxyquinazolin-2-yl}amino)propane-1,2-diol]
